Experiments:
IL-6 = assay: Whole bovine blood assay, LPS-induced IL-6; type: cell-based; conditions: Bos taurus, fresh whole bovine blood, LPS stimulant; top drug concentration 250 μM
IL-1β = assay: Whole bovine blood assay, LPS-induced IL-1β (inhibition / overstimulation); type: cell-based; conditions: drug concentration giving overstimulation (OS) of LPS-induced IL-1β
Summary of the method: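 Fresh heparinized bovine whole blood was preincubated with compound at varying concentrations for 4 h at 37 °C, then stimulated with 1 μg/mL LPS for 18 h. Plasma IL-1β was measured by MSD chemiluminescent immunoassay and normalized to total protein. Values cover inhibition and concentration-dependent overstimulation.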

TNF-α = assay: Whole bovine blood assay, LPS-induced TNF-α; type: cell-based; conditions: Bos taurus, fresh whole bovine blood, LPS stimulant
Summary of the method: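 Fresh heparinized bovine whole blood was preincubated with compound 4 h at 37 °C, then stimulated with LPS (final 1 μg/mL) for 18 h at 37 °C. Plasma TNF-α was quantified by MSD U-Plex chemiluminescent immunoassay, normalized to total protein (BCA), and IC50 taken for LPS-induced TNF-α inhibition.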

P. multocida 46572 = assay: In vivo mouse lung infection challenge model (murine efficacy), survival; design: species or system CD-1 female mice; conditions: P. multocida 46572 intranasal challenge; 20 mg/kg subcutaneous; harmonized relative to vehicle (−) and M9 (+) controls
Description: The challenge organism was P. multocida 46572. Target challenge concentration was 5×10^2 CFU/mouse. Isolated colonies from overnight growth (37° C. with 5% CO2) on trypticase soy agar (TSA II) blood plates were transferred to room temperature Brain Heart Infusion Broth (BHIB). The broth culture was incubated 3.5-4 hours to approximately mid-log phase of growth, as measured by forward light scatter at 600 nm (OD600, 0.200). The culture was centrifuged to collect the bacterial pellet. The pellet was re-suspended in BHIB and adjusted to provide an approximate concentration of 2.7 log 10 colony forming units (CFU) in 0.04 mL at the highest concentration. The challenge inoculum concentration was confirmed by serial dilutions of the inoculum for CFU enumeration. On Day −5, CD −1 female mice were received. Mice were given standard rodent diet and water ad libitum. On Day 0, bacterial inoculum (0.04 mL) was administered to each mouse (n=36) intranasally. Compounds of the invention were dosed at 20 mg/kg (0.1 mL) in a buffered (˜pH 5.4) propylene glycol, monothioglycerol and water solution by subcutaneous injection. Animals were observed from Days 1-10. The study was terminated on Day 10. In addition, some treatment groups were sampled at 6, 24, and 48 hours post bacterial challenge for RNA sequence analysis of lung tissue.
The murine efficacy model (P.multocida challenge) was optimized, and the treatment group size was powered to be able to observe statistically significant improvement of survival to expected ranges for immunomodulatory compounds. The experimental design was a randomized complete block design. Mice were individually identified and treatment groups comingled within a cage, with every treatment group equally represented across cages. Mortality was the primary variable. Mortality data was analyzed using a generalized mixed model with fixed effect of treatment and random effect of block. Survival time was also analyzed using the SAS PHREG (survival analysis) procedure to examine whether there were significant differences between treatment groups and the control group. Numerous compounds of the invention and M9 (positive control) were tested in this model at a dose of 20 mg/kg (Table 3). Typical percent survival for no treatment control is in the range of 0-20% based on study to study variation in challenge inoculum and rate of infection. […] Mouse survival for M9 was about 90-100%, further supporting its residual antibacterial properties against the bacterial strain.

[1] = Bos taurus, 18 h, top concentration 250 μM
[2] = Bos taurus, 18 h, dose of 500 μM (footnote ^)

SMILES | IC50 (IL-6) [µM] | minimal effective concentration (IL-1β; [1]) [µM] | IC50 (TNF-α; top drug concentration 250 μM) [µM] | % Survival (P. multocida 46572) [%] | minimal effective concentration (IL-1β; top concentration 250 μM) [µM] | minimal effective concentration (IL-1β; [2]) [µM] | IC50 (TNF-α; dose of 500 μM (footnote ^)) [µM]
CC[C@H]1OC(=O)[C@H](C)[C@@H](O)[C@H](C)[C@@H](O[C@@H]2O[C@H](C)C[C@H](N(C)S(=O)(=O)c3ccccc3)[C@H]2Oc2ccccc2)[C@](C)(O)C[C@@H](C)CN(C)[C@H](C)[C@@H](O)[C@]1(C)O [Example A-3, N-((2S,3R,4S,6R)-2-(((2R,3S,4R,5R,8R,10R,11R,12S,13S,14R)-2-ethyl-3,4, 10,13-tetrahydroxy-3,5,6,8,10, 12,14-heptamethyl-15-oxo-1-oxa-6-azacyclopentadecan-11-yl)oxy)-6-methyl-3-phenoxytetrahydro-2H-pyran-4-yl)-N-methylbenzenesulfonamide] | 43 | 14 | 23 | 24 |  |  | 
CC[C@H]1OC(=O)[C@H](C)[C@@H](O)[C@H](C)[C@@H](O[C@@H]2O[C@H](C)C[C@H](N(C)S(=O)(=O)c3ccccc3)[C@H]2Oc2ccc(OC)c(OC)c2)[C@](C)(O)C[C@@H](C)CN[C@H](C)[C@@H](O)[C@]1(C)O [Example A-8, N-((2S,3R,4S,6R)-3-(3,4-dimethoxyphenoxy)-2-(((2R,3S,4R,5R,8R,10R,11R,12S,13S,14R)-2-ethyl-3,4, 10, 13-tetrahydroxy-3,5,8,10,12,14-hexamethyl-15-oxo-1-oxa-6-azacyclopentadecan-11-yl)oxy)-6-methyltetrahydro-2H-pyran-4-yl)-N-methylbenzenesulfonamide] |  | 100 | 40 | 20 |  |  | 
CCCNC[C@]1(O)[C@H](C)O[C@@H](O[C@H]2[C@H](C)[C@@H](O[C@@H]3O[C@H](C)C[C@H](N(C)S(=O)(=O)c4ccc(C(F)(F)F)cc4)[C@H]3O)[C@](C)(O)C[C@@H](C)CN[C@H](C)[C@@H](O)[C@](C)(O)[C@@H](CC)OC(=O)[C@@H]2C)C[C@@]1(C)OC [Example B-14, N-((2S,3R,4S,6R)-2-(((2R,3S,4R,5R,8R,10R,11R,12S,13S,14R)-2-ethyl-3,4,10-trihydroxy-13-(((2R,4R,5S,6S)-5-hydroxy-4-methoxy-4,6-dimethyl-5-((propylamino)methyl)tetrahydro-2H-pyran-2-yl)oxy)-3,5,8,10,12,14-hexamethyl-15-oxo-1-oxa-6-azacyclopentadecan-11-yl)oxy)-3-hydroxy-6-methyltetrahydro-2H-pyran-4-yl)-N-methyl-4-(trifluoromethyl)benzenesulfonamide] |  |  |  | 16 |  |  | 
CCCNC[C@]1(O)[C@H](C)O[C@@H](O[C@H]2[C@H](C)[C@@H](O[C@@H]3O[C@H](C)C[C@H](N(C)S(=O)(=O)N(C)Cc4ccc(Cl)cc4)[C@H]3O)[C@](C)(O)C[C@@H](C)CN[C@H](C)[C@@H](O)[C@](C)(O)[C@@H](CC)OC(=O)[C@@H]2C)C[C@@]1(C)OC [Example B-41] |  |  |  | 52 | 6 |  | 
CCCNC[C@]1(O)[C@H](C)O[C@@H](O[C@H]2[C@H](C)[C@@H](O[C@@H]3O[C@H](C)C[C@H](N(C)S(=O)(=O)Nc4ccccc4)[C@H]3O)[C@](C)(O)C[C@@H](C)CN[C@H](C)[C@@H](O)[C@](C)(O)[C@@H](CC)OC(=O)[C@@H]2C)C[C@@]1(C)OC [Example B-48, (2R,3S,4R,5R,8R,10R,11R,12S,13S, 14R)-2-ethyl-3,4,10-trihydroxy-13-[(2R,4R,5S,6S)-5-hydroxy-4-methoxy-4,6-dimethyl-5-(propylaminomethyl)oxan-2-yl]oxy-11-[(2S,3R,4S,6R)-3-hydroxy-6-methyl-4-[methyl(phenylsulfamoyl)amino]oxan-2-yl]oxy-3,5,8,10,12,14-hexamethyl-15-oxo-1-oxa-6-azacyclopentadecane] |  |  |  | 33 |  | 32 | 25
CCCNC[C@]1(O)[C@H](C)O[C@@H](O[C@H]2[C@H](C)[C@@H](O[C@@H]3O[C@H](C)C[C@H](N(C)S(=O)(=O)N(C)C4CCCCC4)[C@H]3O)[C@](C)(O)C[C@@H](C)CN[C@H](C)[C@@H](O)[C@](C)(O)[C@@H](CC)OC(=O)[C@@H]2C)C[C@@]1(C)OC [Example B-49, (2R,3S,4R,5R,8R,10R,11R,12S,13S,14R)-11-[(2S,3R,4S,6R)-4-[[cyclohexyl(methyl)sulfamoyl]-methylamino]-3-hydroxy-6-methyloxan-2-yl]oxy-2-ethyl-3,4,10-trihydroxy-13-[(2R,4R,5S,6S)-5-hydroxy-4-methoxy-4,6-dimethyl-5-(propylaminomethyl)oxan-2-yl]oxy-3,5,8,10,12,14-hexamethyl-1-oxa-6 azacyclopentadecan-15-one] | 16 | 6 | 37 | 53 |  |  | 
CC[C@H]1OC(=O)[C@H](C)[C@@H](O[C@H]2C[C@@](C)(OC)[C@](O)(CNCCCN3CCCCC3)[C@H](C)O2)[C@H](C)[C@@H](O[C@@H]2O[C@H](C)C[C@H](N(C)S(=O)(=O)c3ccc(Cl)cc3)[C@H]2O)[C@](C)(O)C[C@@H](C)CN[C@H](C)[C@@H](O)[C@]1(C)O [Example B-58, 4-chloro-N-((2S,3R,4S,6R)-2-(((2R,3S,4R,5R,8R,10R,11R,12S,13S, 14R)-2-ethyl-3,4,10-trihydroxy-13-(((2R,4R,5S,6S)-5-hydroxy-4-methoxy-4,6-dimethyl-5-(((3-(piperidin-1-yl)propyl)amino)methyl)tetrahydro-2H-pyran-2-yl)oxy)-3,5,8,10,12,14-hexamethyl-15-oxo-1-oxa-6-azacyclopentadecan-11-yl)oxy)-3-hydroxy-6-methyltetrahydro-2H-pyran-4-yl)-N-methylbenzenesulfonamide] | 75 | 40 | 29 | 32 |  |  | 
CCCNC[C@]1(O)[C@H](C)O[C@@H](O[C@H]2[C@H](C)[C@@H](O[C@@H]3O[C@H](C)C[C@H](N(C)S(=O)(=O)c4ccc(Cl)cc4)[C@H]3O)[C@](C)(O)C[C@@H](C)CN[C@H](C)[C@@H](O)[C@](C)(O)[C@@H](CC)OC(=O)[C@@H]2C)C[C@@]1(C)OC [Example B-60, 4-chloro-N-((2S,3R,4S,6R)-2-(((2R,3S,4R,5R,8R,10R,11R, 12S,13S, 14R)-2-ethyl-3,4,10-trihydroxy-13-(((2R,4R,5S,6S)-5-hydroxy-4-methoxy-4,6-dimethyl-5-((propylamino)methyl)tetrahydro-2H-pyran-2-yl)oxy)-3,5,8, 10, 12, 14-hexamethyl-15-oxo-1-oxa-6-azacyclopentadecan-11-yl)oxy)-3-hydroxy-6-methyltetrahydro-2H-pyran-4-yl)-N-methylbenzenesulfonamide] |  |  |  | 37 |  | 13 | 5
CCCNC[C@]1(O)[C@H](C)O[C@@H](O[C@H]2[C@H](C)[C@@H](O[C@@H]3O[C@H](C)C[C@H](N(C)S(=O)(=O)N(C)c4ccc(C(F)(F)F)cc4)[C@H]3O)[C@](C)(O)C[C@@H](C)CN[C@H](C)[C@@H](O)[C@](C)(O)[C@@H](CC)OC(=O)[C@@H]2C)C[C@@]1(C)OC [Example B-113, (2R,3S,4R,5R,8R,10R,11R,12S,13S,14R)-2-ethyl-3,4, 10-trihydroxy-13-[(2R,4R,5S,6S)-5-hydroxy-4-methoxy-4,6-dimethyl-5-(propylaminomethyl)oxan-2-yl]oxy-11-[(2S,3R,4S,6R)-3-hydroxy-6-methyl-4-[methyl-[methyl-[4-(trifluoromethyl)phenyl]sulfamoyl]amino]oxan-2-yl]oxy-3,5,8, 10, 12, 14-hexamethyl-1-oxa-6-azacyclopentadecan-15-one] |  |  | 7 | 59 |  |  | 
CCCNC[C@@]1(O)[C@@H](C)OC(O[C@H]2[C@H](C)[C@@H](O[C@@H]3O[C@H](C)C[C@H](N(C)S(=O)(=O)c4ccccc4)[C@H]3Oc3ccccn3)[C@](C)(O)C[C@@H](C)CN[C@H](C)[C@@H](O)[C@](C)(O)[C@@H](CC)OC(=O)[C@@H]2C)C[C@]1(C)OC (stereo partly shown) [Example B-130] |  |  |  | 42 | 6 |  | 

Reference: patent publication US20250236616A1, “IMMUNOMODULATING AZALIDES” (Zoetis Services LLC, priority 2021, published 2025)
